pEC50, pIC50: −log10 of the molar value. Read-outs that look alike come from different tables or passages of the source.
Experiments:
[1] = Mouse oral cassette pharmacokinetics; assay type: in vivo, male CD-1 mice
Method: Mouse Oral Cassette Pharmacokinetics
Test compounds (1-3 compounds per cassette) were formulated in solution formulations (10 w/v % Captisol in 50 mM Citrate buffer) and administered orally at 30 mg-eq./kg each compound to a group of four male CD-1 mice. The test articles were administrated by oral gavage at a dose volume of 10 mL-eq/kg.
Blood samples were collected at 0.5, 1, 3, 6, 8, and 24 hours post dose into K2EDTA tubes and stored on wet ice until processed. Whole blood was processed to plasma by centrifugation (3500 rpm for 10 minutes at 5° C.) within 30 minutes of collection. Plasma samples were placed in Micronic 96 well tubes and stored at −80° C. until transferred. Plasma concentration of the test compounds was determined by LC-MS/MS. Pharmacokinetic parameters were estimated using non-compartment model analysis. The maximum observed concentration (Cmax) and area under the curve from time of dosing to last measured concentration (AUClast) were calculated and reported.

GDP-loaded KRAS G12D = GDP-loaded KRAS G12D (Homo sapiens, UniProt P01116, G12D); experiment: KRAS G12D (GDP) biochemical assay, TR-FRET probe displacement; assay type: binding; conditions: 0.5 nM enzyme, 30 min pre-incubation, 2 h incubation, TR-FRET ratio; read-out: G12D IC50
Method: Example A. KRAS G12D (GDP) Biochemical Assay
Compounds were tested for binding to GDP-loaded KRAS G12D in a 384-well assay format using a TR-FRET probe displacement assay in buffer consisting of 50 mM Hepes (pH 7.4), 150 mM NaCl, 5 mM MgCl2 and 0.005% Tween-20. […] Compounds were serially diluted (1:3) in DMSO. The LabCyte ECHO Acoustic dispenser system was used to pre-spot the assay plates (384-well Non-Binding Surface plates, Corning, Catalog #3824) with 50 nL of compound. The compounds were pre-incubated with 5 μL of 2× final enzyme concentration for 30 minutes before adding 5 μL of 2× final concentration of Eu-streptavidin and TR-FRET probe (10 μL final reaction volume). The plates were incubated at room temperature for 2 hours before measuring TR-FRET ratio on the Envision plate reader. IC50 values were defined as the compound concentration that causes a 50% decrease in TR-FRET ratio and were calculated using a sigmoidal dose-response model to generate curve fits.

GP2D (KRAS G12D) cells = experiment: 2D cell viability assay (CellTiter-Glo); assay type: cell-based; conditions: GP2D cells, 4 days, CellTiter-Glo luminescence, read-out: G12D 2D EC50
How it was run: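 GP2D (KRAS G12D) cells, 1000/well in RPMI + 10% FBS, were plated onto compound (1:3 DMSO series) and grown 4 days at 37 °C, 5% CO2 in 2D. CellTiter-Glo luminescence was read; EC50 is the concentration giving 50% signal decrease, from sigmoidal fit.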

[2] = oral gavage, 30 mg-eq./kg each compound, cassette, plasma, AUClast of parent
[3] = male, CD-1, mouse, in vivo, po, 30 mg/kg

4-(((1S,4R,11R,14aR)-11-(8-ethynyl-7-fluoro-3-hydroxynaphthalen-1-yl)-10,12-difluoro-8-(((2R,7aS)-2-fluorotetrahydro-1H-pyrrolizin-7a(5H)-yl)methoxy)-1,2,3,4,5,13,14,14a-octahydro-1,4-epiminoazepino[1′,2′:1,71azepino[2,3,4-de]quinazolin-15-yl)methyl)-5-methyl-1,3-dioxol-2-one [Example 37]
Mouse Parent AUC [1, 2]: 0.13 µM·h
pIC50 (GDP-loaded KRAS G12D): 9.00
pEC50 (GP2D (KRAS G12D) cells): 9.64

5-ethynyl-6-fluoro-4-((7R,8S,8aS,9S,12R)-4-fluoro-2-(((2R,7aS)-2-fluorotetrahydro-1H-pyrrolizin-7a(5H)-yl)methoxy)-7,8-dimethyl-14-((5-methyl-2-oxo-1,3-dioxol-4-yl)methyl)-7,8,8a,9,10,11,12,13-octahydro-1,3,6,13a,14-pentaaza-9,12-methanonaphtho[1,8-ab]heptalen-5-yl)naphthalen-2-yl isobutyrate [Example 31]
Mouse Parent AUC [1, 2]: 0.99 µM·h
pEC50 (GP2D (KRAS G12D) cells): 9.70

Cc1cc(N)nc(-c2c(Cl)c3c4c(nc(OC[C@@]56CCCN5C[C@H](F)C6)nc4c2F)N2C[C@H]4CC[C@@H]([C@H]2CC3)N4Cc2oc(=O)oc2C)c1C(F)(F)F (atropisomer, axis not shown; (aR)) [Example 3, 4-(((1R,4S,14aR)-11-((R)-6-amino-4-methyl-3-(trifluoromethyl)pyridin-2-yl)-12-chloro-10-fluoro-8-(((2R,7aS)-2-fluorotetrahydro-1H-pyrrolizin-7a(5H)-yl)methoxy)-1,2,3,4,5,13,14,14a-octahydro-1,4-epiminoazepino[1′,2′:1,7]azepino[2,3,4-de]quinazolin-15-yl)methyl)-5-methyl-1,3-dioxol-2-one]
Mouse Parent AUC [1, 3]: 5.7 µM·h
pIC50 (GDP-loaded KRAS G12D): 8.33
pEC50 (GP2D (KRAS G12D) cells; 96 h): 9.04

C#Cc1c(F)ccc2cc(O)cc(-c3nc4c5c(nc(OC[C@@]67CCCN6C[C@H](F)C7)nc5c3F)N3C[C@H]5CC[C@H](N5)[C@@H]3[C@@H](C)C4)c12 [Comp. Ex. 64, 5-ethynyl-6-fluoro-4-((5S,5aS,6S,9R)-1-fluoro-12-(((2R,7aS)-2-fluorotetrahydro-1H-pyrrolizin-7a(5H)-yl)methoxy)-5-methyl-4,5,5a,6,7,8,9,10-octahydro-3,10a,11,13,14-pentaaza-6,9-methanonaphtho[1,8-ab]heptalen-2-yl)naphthalen-2-ol, reference compound]
Mouse Parent AUC [1, 3]: 0.83 µM·h

C#Cc1c(F)ccc2cc(O)cc(-c3nc4c5c(nc(OC[C@@]67CCCN6C[C@H](F)C7)nc5c3F)N3C[C@H]5CC[C@H](N5)[C@@H]3[C@@H](C)[C@H]4C)c12 [Comp. Ex. 87, reference compound]
Mouse Parent AUC [1, 3]: 0.9 µM·h

C#Cc1c(F)ccc2cccc(-c3nc4c5c(nc(OC[C@@]67CCCN6C[C@H](F)C7)nc5c3F)N3C[C@H]5CC[C@@H]([C@H]3CCC4)N5Cc3oc(=O)oc3C)c12 [Example 1, 4-(((6aR,7S,10R)-2-(8-ethynyl-7-fluoronaphthalen-1-yl)-1-fluoro-13-(((2R,7aS)-2-fluorotetrahydro-1H-pyrrolizin-7a(5H)-yl)methoxy)-5,6,6a,7,8,9,10,11-octahydro-4H-3,11a,12,14,15-pentaaza-7,10-methanocyclohepta[4,5]cycloocta[1,2,3-de]naphthalen-15-yl)methyl)-5-methyl-1,3-dioxol-2-one]
Mouse Parent AUC [1, 3]: 3.6 µM·h
pIC50 (GDP-loaded KRAS G12D): 8.60
pEC50 (GP2D (KRAS G12D) cells; 96 h): 8.24

C#Cc1c(F)ccc2cc(O)cc(-c3nc4c5c(nc(OC[C@@]67CCCN6C[C@H](F)C7)nc5c3F)N3C[C@H]5CC[C@@H]([C@H]3CCC4)N5Cc3oc(=O)oc3C)c12 [Example 8, 4-(((6aR,7S,10R)-2-(8-ethynyl-7-fluoro-3-hydroxynaphthalen-1-yl)-1-fluoro-13-(((2R,7aS)-2-fluorotetrahydro-1H-pyrrolizin-7a(5H)-yl)methoxy)-5,6,6a,7,8,9,10,11-octahydro-4H-3,11a,12,14,15-pentaaza-7,10-methanocyclohepta[4,5]cycloocta[1,2,3-de]naphthalen-15-yl)methyl)-5-methyl-1,3-dioxol-2-one]
Mouse Parent AUC [1, 3]: 1.1 µM·h
pIC50 (GDP-loaded KRAS G12D): 8.32
pEC50 (GP2D (KRAS G12D) cells; 96 h): 9.31

C#Cc1c(F)ccc2cc(O)cc(-c3nc4c5c(nc(OC[C@@]67CCCN6C[C@H](F)C7)nc5c3F)N3C[C@H]5CC[C@@H]([C@H]3CCC4)N5Cc3oc(=O)oc3C(C)(C)C)c12 [Example 9, 4-(tert-butyl)-5-(((6aR,7S,10R)-2-(8-ethynyl-7-fluoro-3-hydroxynaphthalen-1-yl)-1-fluoro-13-(((2R,7aS)-2-fluorotetrahydro-1H-pyrrolizin-7a(5H)-yl)methoxy)-5,6,6a,7,8,9,10,11-octahydro-4H-3,11a,12,14,15-pentaaza-7,10-methanocyclohepta[4,5]cycloocta[1,2,3-de]naphthalen-15-yl)methyl)-1,3-dioxol-2-one]
Mouse Parent AUC [1, 3]: 0.16 µM·h
pIC50 (GDP-loaded KRAS G12D): 7.92
pEC50 (GP2D (KRAS G12D) cells; 96 h): 8.72

C#Cc1c(F)ccc2cc(O)cc(-c3nc4c5c(nc(OC[C@@]67CCCN6C[C@H](F)C7)nc5c3F)N3C[C@H]5CC[C@@H]([C@H]3CCC4)N5Cc3oc(=O)oc3CCCCCCCC)c12 [Example 10, 4-(((6aR,7S,10R)-2-(8-ethynyl-7-fluoro-3-hydroxynaphthalen-1-yl)-1-fluoro-13-(((2R,7aS)-2-fluorotetrahydro-1H-pyrrolizin-7a(5H)-yl)methoxy)-5,6,6a,7,8,9,10,11-octahydro-4H-3,11a,12,14,15-pentaaza-7,10-methanocyclohepta[4,5]cycloocta[1,2,3-de]naphthalen-15-yl)methyl)-5-octyl-1,3-dioxol-2-one]
Mouse Parent AUC [1, 3]: 0.44 µM·h
pIC50 (GDP-loaded KRAS G12D): 8.11
pEC50 (GP2D (KRAS G12D) cells; 96 h): 9.80

C#Cc1c(F)ccc2cc(O)cc(-c3c(F)c4c5c(nc(OCC67CCCN6CC(F)C7)nc5c3F)N3CC5CCC(C3CCC4)N5Cc3oc(=O)oc3C)c12 [Example 28, 4-(((1S,4R,11R,15aR)-11-(8-ethynyl-7-fluoro-3-hydroxynaphthalen-1-yl)-10,12-difluoro-8-(((2R,7aS)-2-fluorotetrahydro-1H-pyrrolizin-7a(5H)-yl)methoxy)-2,3,4,5,13,14,15,15a-octahydro-1H-1,4-epiminoazepino[1′,2′:1,8]azocino[2,3,4-de]quinazolin-16-yl)methyl)-5-methyl-1,3-dioxol-2-one]
Mouse Parent AUC [1, 2]: 0.7 µM·h
pEC50 (GP2D (KRAS G12D) cells): 9.74

C#Cc1c(F)ccc2cc(O)cc(-c3nc4c5c(nc(OC[C@@]67CCCN6C[C@H](F)C7)nc5c3F)N3C[C@H]5CC[C@@H]([C@@H]3[C@@H](C)[C@H]4C)N5Cc3oc(=O)oc3C)c12 [Example 29, 4-(((7R,8S,8aS,9S,12R)-5-(8-ethynyl-7-fluoro-3-hydroxynaphthalen-1-yl)-4-fluoro-2-(((2R,7aS)-2-fluorotetrahydro-1H-pyrrolizin-7a(5H)-yl)methoxy)-7,8-dimethyl-7,8,8a,9,10,11,12,13-octahydro-1,3,6,13a,14-pentaaza-9,12-methanonaphtho[1,8-ab]heptalen-14-yl)methyl)-5-methyl-1,3-dioxol-2-one]
Mouse Parent AUC [1, 3]: 0.75 µM·h
pEC50 (GP2D (KRAS G12D) cells; 96 h): 9.89

C#Cc1c(F)ccc2cc(OC(=O)C(C)C)cc(-c3nc4c5c(nc(OC[C@@]67CCCN6C[C@H](F)C7)nc5c3F)N3C[C@H]5CC[C@@H]([C@H]3CCC4)N5Cc3oc(=O)oc3C)c12 [Example 30, 5-ethynyl-6-fluoro-4-((6aR,7S,10R)-1-fluoro-13-(((2R,7aS)-2-fluorotetrahydro-1H-pyrrolizin-7a(5H)-yl)methoxy)-15-((5-methyl-2-oxo-1,3-dioxol-4-yl)methyl)-5,6,6a,7,8,9,10,11-octahydro-4H-3,11a,12,14,15-pentaaza-7,10-methanocyclohepta[4,5]cycloocta[1,2,3-de]naphthalen-2-yl)naphthalen-2-yl isobutyrate]
Mouse Parent AUC [1, 3]: 0.66 µM·h
pEC50 (GP2D (KRAS G12D) cells; 96 h): 9.66
